Consider 6 molecules from ChEMBL document CHEMBL1201862, “PubChem BioAssay data set” (2004).

Experiment in all cases: DTP human tumour cell line panel, 48 h
Assay [1] deals with A549.
The subject of assay [2] is ACHN.
In assay [3] the test system is HCT-15.
For assay [4], the system named is HOP-62.
Assay [5] relates to NCI-H460.
Assay [6] has as its system OVCAR-3.
Assay [7] deals with SF-268.
Assay [8] has as its system SF-539.
Assay [9] deals with SK-MEL-28.
Assay [10] relates to SN12C.
In assay [11] the test system is SNB-19.
Assay [12] has as its system UO-31.
Assay [13] deals with HL-60.
Assay [14] relates to MOLT-4.
The test system of assay [15] is NCI-H226.
For assay [16], the system named is SNB-75.

Each structure is given as a SMILES string.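 Dose response: 5 concentrations. Exposure: 48 h. Format: 96-well plates. Endpoint: linear interpolation; highest concentration if not reached. GI50: concentration for 50% inhibition of growth.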 Activity calls are given as the source filed them. No stated cut-off is given here; in the data, active = GI50 up to about 1.1 µM and inactive = higher.

Regarding `Cc1ccc(C(=O)NC2CCCCC2)cc1/N=N/N(C)C`, the GI50 in [1] was > 100 µM (inactive); in assay [2] it was > 100 µM (inactive); in [3] it was over 100 µM; in [4], > 100 µM (inactive); in assay [5], > 100 µM (inactive); in assay [6] it was > 100 µM (inactive). The GI50 is 44.9 µM (inactive) in assay [7]; > 100 µM (inactive) in assay [8]; > 100 µM (inactive) in assay [9]; > 100 µM (inactive) in [10]; > 100 µM (inactive) in [11]; > 100 µM (inactive) in assay [12].

For `COC(=O)/N=C(\NC(=O)OC)Nc1ccc(Oc2ccccc2)cc1NC=O`, the GI50 in [1] was 0.597 µM (active); in assay [2] it was 0.881 µM (active); in assay [13], 0.206 µM (active); in [4], 0.912 µM (active); in [14], 0.836 µM (active); in assay [15] it was 0.977 µM (active). Moreover, the GI50 in assay [6] is 0.327 µM (active); in [7], 0.673 µM (active); in assay [8], 0.433 µM (active); in assay [10], 1.58 µM (inactive); in assay [11] it was > 100 µM (inactive); in assay [16], 0.421 µM (active). In addition, the GI50 in assay [12] was 0.871 µM (active).

Regarding `CCOC(=O)C1=C(NC(C)(C)C)OCC1=O`, the GI50 in [1] is > 100 µM (inactive); in assay [2], > 100 µM (inactive); in [3], over 100 µM; in assay [13], > 100 µM (inactive); in assay [4] it was > 100 µM (inactive); in [14], > 100 µM (inactive). Besides, the GI50 in [15], in assay [5], in [6], in [7], in assay [8] and in [9] was > 100 µM (inactive) each time. Besides, the GI50 in assay [10], in [11], in [16] and in [12] was > 100 µM (inactive) throughout.

For the molecule `C=C1C2CCCC1C1(S(C)(=O)=O)CCCCC21O` (stereo not given), the GI50 in assay [1] was > 100 µM (inactive); in assay [2], > 100 µM (inactive); in assay [3], over 100 µM; in assay [14], > 100 µM (inactive); in assay [15], > 100 µM (inactive); in assay [5], > 100 µM (inactive). Further, the GI50 in assay [6], in [8], in [9], in [10], in [11] and in assay [16] was > 100 µM (inactive) in each case. Moreover, the GI50 in assay [12] was > 100 µM (inactive).

For `NC(=O)COC(=O)c1c(Cl)nc2sccn12`, the GI50 in assay [1] was > 100 µM (inactive); in assay [2], > 100 µM (inactive); in assay [3], over 40.3 µM; in assay [13], > 46 µM (inactive); in assay [4], > 100 µM (inactive); in assay [14], > 100 µM (inactive). Further, the GI50 in [15] was > 100 µM (inactive); in assay [5], > 61.2 µM (inactive); in assay [6] it was > 43.7 µM (inactive); in assay [7], > 100 µM (inactive); in [8] it was > 100 µM (inactive); in assay [9], > 100 µM (inactive). The GI50 in assay [10], in assay [11], in assay [16] and in assay [12] was > 100 µM (inactive) in each case.

Regarding `Cc1cc2c(=O)cc(-c3ccc(C(=O)O)cc3)oc2c(C(=O)O)c1C`, the GI50 in [1] is > 100 µM (inactive); in assay [2], > 100 µM (inactive); in assay [3] it was over 100 µM; in [13], > 100 µM (inactive); in assay [4], > 100 µM (inactive); in assay [14], > 100 µM (inactive). Besides, the GI50 in [15], in [5], in [6], in assay [8], in assay [9] and in assay [10] was > 100 µM (inactive) in each case. Besides, the GI50 in assay [11], in assay [16] and in [12] was > 100 µM (inactive) each time.

Broadly, the GI50 is the concentration giving 50% growth inhibition.
